In general, DC50 refers to the concentration at which degradation of the target reaches its halfway point. A word on the Dmax: it is the largest share of the target that was removed. What is called pIC50 is −log10 of the IC50, conventionally taken in molar units.

pIC50: −log10 of the molar value.

What all share (assay type): cell-based
The target of assay [1] is T1, EGFR L858R (BaF3-L858R cells) (Homo sapiens, UniProt P00533, L858R).
T1 construct: host or cells: BaF3
The assay is described as follows: Cell degradation of EGFR, HTRF assay, BaF3-L858R cells. The settings on record: 16 h treatment; for DC50: EGFR degradation; for Dmax: maximum percentage of degradation. A digest of the protocol: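 BaF3-L858R cells treated 16 h at 37° C, 5% CO2 with compound (top 10 uM final, 5-fold, 8 doses, 0.1% DMSO). DC50 from four-parameter fit; Dmax is maximum percent degradation.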

Assay [2] concerns the target T2, EGFR-L858R/C797S (H1975-clone #8 cells) (Homo sapiens, UniProt P00533, C797S/L858R).
T2 construct: expressed in transfected cells; host or cells: H1975 (endogenous EGFR knocked out, clone #8)
The assay is described as follows: Cell degradation of EGFR, HTRF assay, H1975-clone#8 (L858R/C797S) cells. The following applies: 16 h treatment; for DC50: EGFR degradation; for Dmax: maximum percentage of degradation. A general note: In TR-FRET formats the signal depends on donor and acceptor labels being close together.

Assay [3] concerns the target T3, p-EGFR L858R (BaF3-L858R cells) (Homo sapiens, UniProt P00533, L858R).
T3 construct: host or cells: BaF3
The assay is described as follows: Cell p-EGFR inhibition assay, HTRF, BaF3-L858R cells. The settings on record: 16 h treatment; for Imax (%): maximum percentage of pEGFR inhibition; for pIC50: pEGFR inhibition. On the procedure:
BaF3-L858R (abbv. L858R) cell were purchased from Kangyuan Bochuang Biotechnology (Beijing) Co., Ltd.
(§1) H1975-#23 and BaF3-L858R cells are treated with compounds diluted in 0.1% DMSO cell culture medium on day 2, incubate for 16 h, 37° C., 5% CO2. the final concentration of compounds in all assay is start with 10 uM, 5-fold dilution, total 8 doses were included.
(§2) After 16 h treatment, for H1975-#23 cells, add 50 ul HTRF 1× lysis buffer to each well; for BaF3-L858R cells, add 20 μl 4× lysis buffer to each well; seal the plate and incubate 1 hour at room temperature on a plate shaker; Once the cells are lysed, 16 μL of cell lysate are transferred to a PE 384-well HTRF detection plate; 4 μL of pre-mixed HTRF antibodies are added to each well; Cover the plate with a plate sealer, spin 1000 rpm for 1 min, Incubate overnight at room temperature; Read on BMG PheraStar with HTRF protocol (337 nm-665 nm-620 nm).
(§3) High control=Cell group with added DMSO and without compound, indicating microplate readings without p-EGFR inhibited.
(§4) Imax is the maximum percentage of inhibition.
(§5) The IC50 value of a compound can be obtained by fitting the following equation.
(§6) Wherein, X and Y are known values, and IC50, Hillslope, Top and Bottom are the parameters obtained by fitting with software. […] The experimental data were fitted by calculating and analyzing with Dotmatics data analysis software.

Assay [4] addresses p-EGFR Del19/C797S (H1975-clone #23 cells) (Homo sapiens, UniProt P00533). The assay can be described thus: Cell p-EGFR inhibition assay, HTRF, H1975-clone#23 (DEL19/C797S) cells. The following applies: 16 h treatment; for Imax (%): maximum percentage of pEGFR inhibition; for pIC50: pEGFR inhibition. On the procedure: The EGFR over-expressed cells then underwent knockout, in which the EGFR targeting sgRNA was designed to only target the endogenous EGFR copies and preserve the exogenous EGFR copies. Followed by the knockout, the edited H1975 cells were seeded in 96 well plates at the concentration of 1 cell/well, cultured for about 2 weeks to allow single clones formation. The formed clones were screened by DNA sequencing and whole exon sequencing analysis for the desired edition.
as §1, §2, §3, §4, §5, §6

For `Cc1cc2cc(n1)-c1c(C)nn(C)c1OC[C@H]1CC[C@H](C1)CN1/C(=N/C2=O)Nc2ccc(N3CCN(C4CCN(c5cc(F)c([C@H]6CCC(=O)NC6=O)c(F)c5)CC4)C(=O)C3)cc21` [Example 164, (R)-3-(2,6-difluoro-4-(4-(2-oxo-4-((7^1R,7^3S,E)-1^1,1^3,2^6-trimethyl-3-oxo-5^2,5^3-dihydro-1^1H,5^1H-9-oxa-4-aza-5(2,1)-benzo[d]imidazola-2(2,4)-pyridina-1(4,5)-pyrazola-7(1,3)-cyclopentanacyclononaphane-5^6-yl)piperazin-1-yl)piperidin-1-yl)phenyl)piperidine-2,6-dione], in assay [1], it took 2.79 nM to reach half-maximal degradation (DC50) and the Dmax was found to be 92.7%. Also, in assay [2], half-maximal degradation (DC50) was put at 1.19 nM and the Dmax stood at 88.7%. Also, in assay [3], the “Imax (%)” value came to 94.91% and the negative-log IC50 (pIC50) is 8.73. Moreover, in assay [4], the “Imax (%)” value was 96.95% and the pIC50 was 9.60.

In assay [1], `COC[C@@H]1CN(c2ccc3c(c2)N2CC4CC[C@H](COc5c(c(C(F)F)nn5C)-c5cc(cc(C)n5)C(=O)/N=C/2N3)C4)CCN1C1CCN(c2cc(F)c([C@H]3CCC(=O)NC3=O)c(F)c2)CC1` [Example 85, (R)-3-(4-(4-((S)-4-((7^1R,7^3S,E)-1^3-(difluoromethyl)-1^1,2^6-dimethyl-3-oxo-5^2,5^3-dihydro-1^1H,5^1H-9-oxa-4-aza-5(2,1)-benzo[d]imidazola-2(2,4)-pyridina-1(4,5)-pyrazola-7(1,3)-cyclopentanacyclononaphane-5^6-yl)-2-(methoxymethyl)piperazin-1-yl)piperidin-1-yl)-2,6-difluorophenyl)piperidine-2,6-dione] had a DC50 of 4.23 nM and a Dmax of 78%. In assay [2], half-maximal degradation (DC50) was put at 4.91 nM and the Dmax was found to be 83%. In addition, in assay [3], the “Imax (%)” value is 97.5% and the negative logarithm of the IC50 (pIC50) was 7.94. In assay [4], the “Imax (%)” value is 99.7% and the pIC50 is 8.51.

Turning to `Cc1cc2cc(n1)-c1c(C)nn(C)c1OC[C@H]1CC[C@H](C1)CN1/C(=N/C2=O)Nc2ccc(N3CCN(C4CCN(c5cc(F)c([C@H]6CCC(=O)NC6=O)c(F)c5)CC4)[C@@H](CC#N)C3)cc21` [Example 163, 2-((S)-1-(1-(4-((R)-2,6-dioxopiperidin-3-yl)-3,5-difluorophenyl)piperidin-4-yl)-4-((7^1R,7^3S,E)-1^1,1^3,2^6-trimethyl-3-oxo-5^2,5^3-dihydro-1^1H,5^1H-9-oxa-4-aza-5(2,1)-benzo[d]imidazola-2(2,4)-pyridina-1(4,5)-pyrazola-7(1,3)-cyclopentanacyclononaphane-5^6-yl)piperazin-2-yl)acetonitrile], the results for the 50% degradation concentration (DC50) in assay [1] and in assay [2] were 4.4 nM and 2.97 nM, respectively. For the same compound, the maximal degradation (Dmax) in assay [1] worked out at 88.1%; in assay [2], 82.5%. Also, the “Imax (%)” value in assay [3] is listed as 94.53%; in assay [4] it was 96.05%. Besides, the pIC50 in assay [3] is 8.65; in assay [4] it was 9.22.

Take `Cc1cc2cc(n1)-c1cnn(C)c1OC[C@H]1CC[C@H](C1)CN1/C(=N/C2=O)Nc2ccc(N3CCN(C4CCN(c5ccc(OC6CCC(=O)NC6=O)cc5)CC4)CC3)cc21` (some centres unmarked) [Example 57, 3-(4-(4-(4-((7^1R,7^3S,E)-1^1,2^6-dimethyl-3-oxo-5^2,5^3-dihydro-1^1H,5^1H-9-oxa-4-aza-5(2,1)-benzo[d]imidazola-2(2,4)-pyridina-1(4,5)-pyrazola-7(1,3)-cyclopentanacyclononaphane-5^6-yl)piperazin-1-yl)piperidin-1-yl)phenoxy)piperidine-2,6-dione]: in assay [1], the half-maximal degradation concentration (DC50) stood at 3.84 nM and the greatest degradation seen (Dmax) worked out at 82.6%. In assay [2], half-maximal degradation (DC50) was put at 3.14 nM and the Dmax is 58.5%. Further, in assay [3], the “Imax (%)” value is reported as 101% and the pIC50 was 7.98. Further, in assay [4], the “Imax (%)” value was found to be 97.9% and the negative-log IC50 (pIC50) is 8.92.

The record behind these values is patent US20240425523A1, “Compounds for the Degradation of EGFR Kinase” (Beigene Switzerland GMBH, priority 2023, published 2024).
